Here are results for 15 molecules from paper PMC13335744, “Functional Analysis of Ligand‐Gated Chloride Channels in a Cnidarian Sheds Light on the Evolution of Inhibitory Signaling” (Advanced Science, 2026).

In general, EC50 refers to the concentration at which the effect is half-maximal. By stoichiometry N is commonly meant the number of molecules, sites or subunits per partner or assembly. As a reminder, the IC50 is the midpoint of a concentration-inhibition curve.

One data set has as its system nvpLGIC‐1 – nvpLGIC‐7. The data set is described as follows: Ligand screen by two-electrode voltage clamp, nvpLGIC‐1 – nvpLGIC‐7 expressed individually in Xenopus oocytes. In kind it is cell-based, Nematostella vectensis. To be noted: for evoked currents: 1 µM–1 mM. The method, then: Approximately 2–5 ng of cRNA of nvpLGICs were injected into Xenopus laevis oocytes of stages V and VI. Injected oocytes were incubated at 19 °C in oocyte Ringer's solution (OR‐2) containing (in mM): 82.5 NaCl, 2.5 KCl, 1.0 Na2HPO4,1.0 MgCl2, 1.0 CaCl2, 5.0 HEPES, 0.5 g l^−1 PVP, 1000 U l^−1 penicillin, and 10 mg l^−1 streptomycin. pH was adjusted to 7.3 using NaOH.
(§1) For electrophysiology, whole‐oocyte currents were measured two days after injection using a two‐electrode voltage clamp (TEVC) set‐up with a TurboTec 03X amplifier (npi electronic GmbH, Tamm, Germany) and a pump‐driven solution exchange system combined with the oocyte testing carousel (OTC), controlled by the interface OTC‐20. For nvGluCl‐1, the His‐tagged version was functionally characterized. Standard bath solution contained (in mM): 140 NaCl, 10 HEPES, 1.8 CaCl2, and 1.0 MgCl2, pH was adjusted to 7.4 using NaOH. Solution exchange was controlled using the CellWorks 5.1.1 software (npi electronic). Data were sampled at 0.1–1 kHz and filtered at 20 Hz. Holding potential was −70 mV.

In the next data set the test system is nvGluCl‐2 K229 mutants. The data set is described as follows: Two-electrode voltage clamp of oocytes expressing nvGluCl‐2 with substitutions of K229 (K229T, K229R, K229M). In kind it is cell-based, Nematostella vectensis. An excerpt: Full‐length DNA sequences of […] subunits were identified and cloned based on bulk and single cell transcriptomes of N. vectensis. nvpLGIC‐1 – nvpLGIC‐4 were cloned in oocyte expression vector pRSSP6009 [72]. nvpLGIC‐5 and […] DNA sequences were synthesized and cloned in the pCDNA3.1 (‐) vector (BioCat GmbH). They were then subcloned in the vector pRSSP6009 (nvpLGIC‐6) or pRSSP 6013 (nvpLGIC‐5). Site‐directed mutations were introduced in nvGluCl‐2 to create the mutants at position K229, using the Quick‐change mutagenesis method. nvpLGIC‐1 – nvpLGIC‐6 subunits were fused with His6‐tags at their C‐terminus using PCR. His6‐tags were incorporated just before the stop codon without changing any other amino acids. All final constructs were sequenced for confirmation. […]
For electrophysiology, whole‐oocyte currents were measured two days after injection using a two‐electrode voltage clamp (TEVC) set‐up with a TurboTec 03X amplifier (npi electronic GmbH, Tamm, Germany) and a pump‐driven solution exchange system combined with the oocyte testing carousel (OTC), controlled by the interface OTC‐20. […]
For orientation: Two-electrode voltage clamp is typically applied to oocytes expressing channels or transporters.

The test system of a further data set is nematocytes. On the set-up: method as in PMID 32452384. To be noted: cited from earlier work.
The test system of a further data set is nvGluCl‐1 (nvpLGIC‐1). The data set is described as follows: Two-electrode voltage clamp of Xenopus oocytes expressing nvGluCl‐1 (nvpLGIC‐1). In kind it is cell-based, Nematostella vectensis. On the procedure: (§2) Approximately 2–5 ng of cRNA of nvpLGICs were injected into Xenopus laevis oocytes of stages V and VI.
as §1, with “For nvGluCl‐1, the His‐tagged version was functionally characterized.” left out
(§3) Electrophysiological data were analyzed offline, and current amplitudes were assessed using CellWorks Reader 6.2.2 (npi electronic GmbH, Tamm, Germany). Concentration‐response relationships were normalized to the currents obtained with a saturating concentration (I/Imax ). The mean of normalized amplitudes was plotted as a function of ligand concentrations.
(§4) Desensitization kinetics and recovery from desensitization were fitted to a mono‐exponential function: (2) y=yo+Ae^−x/τ where yo is the offset, A is the amplitude, and τ is the time constant.

A further data set deals with nvGluCl‐2 (nvpLGIC‐2). The data set is described as follows: Two-electrode voltage clamp of Xenopus oocytes expressing nvGluCl‐2 (nvpLGIC‐2). In kind it is cell-based, Nematostella vectensis. On the procedure: as §2
as §1, with “For nvGluCl‐1, the His‐tagged version was functionally characterized.” left out
as §3, §4

A further data set relates to nvGluCl‐3 (nvpLGIC‐6). The data set is described as follows: Two-electrode voltage clamp of Xenopus oocytes expressing nvGluCl‐3 (nvpLGIC‐6). In kind it is cell-based, Nematostella vectensis. On the procedure:
as §2
as §1, with “For nvGluCl‐1, the His‐tagged version was functionally characterized.” left out
as §3, §4

Data set [1] concerns the target nvpLGIC-1 (Nematostella vectensis pentameric ligand-gated ion channel subunit 1), C-terminal His6 (Nematostella vectensis). The data set is described as follows: native gel or EMSA; blue native PAGE of C-terminally His-tagged receptors expressed in Xenopus laevis oocytes, solubilised with digitonin and purified under non-denaturing conditions on Ni-NTA; run native and partially denatured (SDS 1 h at 37°C; methods say LiDS) to count lower-order intermediates; surface pool detected by IR800 fluorescence, total pool by 35S phosphorimaging.

Data set [2] deals with nvpLGIC-3 (Nematostella vectensis pentameric ligand-gated ion channel subunit 3), C-terminal His6 (Nematostella vectensis). Described as above.
Data set [3] has as its target nvpLGIC-5 (Nematostella vectensis pentameric ligand-gated ion channel subunit 5), C-terminal His6 (Nematostella vectensis). The data set is described as above.
Data set [4] deals with the molecule itself. The data set is described as above.
[5] abbreviates: also with a mix of nvpLGIC‐1 – nvpLGIC‐7, nvpLGIC‐7 not tested individually.
The mark [6] stands for this setting: at 500 µM glutamate, single exponential fit.
Where [7] appears, read: read-out: EC50, half‐maximal activation, TEVC, holding potential −70 mV.

Consider `N[C@H](CO)C(=O)O` [D‐serine], for which the elicited currents result in the data set with nvpLGIC‐1 – nvpLGIC‐7 (1 mM) was “did not elicit currents”.
With `NCCCC(=O)O` [GABA, γ‐aminobutyric acid], in the data set on nvpLGIC‐1 – nvpLGIC‐7, the evoked currents entry is “neither GABA nor glycine (1 µM–1 mM) evoked currents”. In addition, the “activation of K229 mutant channels” value in the data set on nvGluCl‐2 K229 mutants is “still not activated”. Moreover, the elicited currents entry with nematocytes is given as “neither Glu nor GABA elicit currents”.
On to `CC(=O)OCC[N+](C)(C)C` [acetylcholine], for which the figures for the elicited currents entry in the data set with nvpLGIC‐1 – nvpLGIC‐7 (1 mM) and in the data set with nematocytes were “did not elicit currents” and “elicits an inward Ca^2+ current”, respectively.
Consider `N[C@@H](CC(=O)O)C(=O)O` [aspartate], for which the elicited currents result in the data set on nvpLGIC‐1 – nvpLGIC‐7 (setting [5]) was “did not elicit currents”.
On to `N[C@@H](CCC(=O)O)C(=O)O` [glutamate], for which the evoked currents result in the data set on nvGluCl‐1 (nvpLGIC‐1) (100 µM), in the data set with nvGluCl‐2 (nvpLGIC‐2) (100 µM) and in the data set on nvGluCl‐3 (nvpLGIC‐6) (100 µM) was “evoked large currents” throughout. Also, the “time constant of desensitization, τdes” value with nvGluCl‐1 (nvpLGIC‐1) (setting [6]) was 26 ± 3 ms; in the data set on nvGluCl‐2 (nvpLGIC‐2) (setting [6]), 111 ± 47 ms; in the data set on nvGluCl‐3 (nvpLGIC‐6) (setting [6]) it was 161 ± 93 ms. Also, the EC50 in the data set on nvGluCl‐1 (nvpLGIC‐1) (read-out: EC50, half‐maximal activation, TEVC, holding potential −70 mV, His‐tagged version) was 16 µM; with nvGluCl‐2 (nvpLGIC‐2) (setting [7]), 102 µM; in the data set on nvGluCl‐3 (nvpLGIC‐6) (setting [7]), 7 µM. The figures for the “recovery from desensitization, τrecovery” value in the data set on nvGluCl‐2 (nvpLGIC‐2) (30 s desensitizing pulse of 100 µM glutamate) and in the data set with nvGluCl‐3 (nvpLGIC‐6) (desensitization by 30 µM glutamate for 30 s) were 31 s and 38 s, respectively. Also, the “response to glutamate of K229T, K229R, K229M mutants” value in the data set with nvGluCl‐2 K229 mutants (10 mM glutamate) was “almost completely abolished the response”. Moreover, the elicited currents entry with nematocytes is reported as “neither Glu nor GABA elicit currents”.
On to `NC(=O)CC[C@H](N)C(=O)O` [glutamine], for which, in the data set on nvpLGIC‐1 – nvpLGIC‐7 (setting [5]), the elicited currents result is recorded as “did not elicit currents”.
Consider `NCC(=O)O` [glycine], for which the evoked currents entry with nvpLGIC‐1 – nvpLGIC‐7 was “neither GABA nor glycine (1 µM–1 mM) evoked currents”.
In the case of `NCCc1c[nH]cn1` [histamine], the elicited currents result with nvpLGIC‐1 – nvpLGIC‐7 (setting [5]) was “did not elicit currents”.
Turning to `NCCc1c[nH]c2ccc(O)cc12` [serotonin], in the data set with nvpLGIC‐1 – nvpLGIC‐7 (1 mM), the elicited currents result was “did not elicit currents”.
Regarding `NCCC(=O)O` [β‐alanine], the elicited currents result with nvpLGIC‐1 – nvpLGIC‐7 (setting [5]) is reported as “did not elicit currents”.
In [1], “nvpLGIC-1 (Nematostella vectensis pentameric ligand-gated ion channel subunit 1), C-terminal His6 (receptor)” gave a stoichiometry N of 5.
For the molecule “nvpLGIC-3 (Nematostella vectensis pentameric ligand-gated ion channel subunit 3), C-terminal His6 (receptor)”, the stoichiometry N in data set [2] amounted to 5.
In turn, “nvpLGIC-5 (Nematostella vectensis pentameric ligand-gated ion channel subunit 5), C-terminal His6 (receptor)” yielded a stoichiometry N in data set [3] of 5.
As for picrotoxin [PTx], in the data set with nvGluCl‐2 (nvpLGIC‐2) (100 µM glutamate, read-out: apparent IC50, inhibition of glutamate-evoked current), the IC50 is roughly 10 µM.

B1: human GABAA receptor β3 subunit (hGABRB3), His-tagged (receptor, UniProt P28472 26-473, looked up)
chain: QSVNDPGNMSFVKETVDKLLKGYDIRLRPDFGGPPVCVGMNIDIASIDMVSEVNMDYTLTMYFQQYWRDKRLAYSGIPLNLTLDNRVADQLWVPDTYFLNDKKSFVHGVTVKNRMIRLHPDGTVLYGLRITTTAACMMDLRRYPLDEQNCTLEIESYGYTTDDIEFYWRGGDKAVTGVERIELPQFSIVEHRLVSRNVVFATGAYPRLSLSFRLKRNIGYFILQTYMPSILITILSWVSFWINYDASAARVALGITTVLTMTTINTHLRETLPKIPYVKAIDMYLMGCFVFVFLALLEYAFVNYIFFGRGPQRQKKLAEKTAKAKNDRSKSESNRVDAHGNILLTSLEVHNEMNEVSGGIGDTRNSAISFDNSGIQYRKQSMPREGHGRFLGDRSLPHKKTHLRRRSSQLKIKIPDLTDVNAIDRWSRIVFPFTFSLFNLVYWLYYVN
modifications: metabolically labelled with [35S]methionine; surface pool labelled with the lysine-reactive dye IR800-NHS ester
notes: human GABAA receptor subunit β3 (GABRB3), full-length cDNA from the Harvard Plasmid Repository, subcloned into a Gateway-compatible pNKS2 vector; Positive control for homopentamer formation; also called human GABAA β3; human β3 receptor; source: Xenopus laevis oocytes, cRNA-injected; digitonin-solubilised, purified (Ni-NTA); not shown: His tag, C-terminal, kept
On to B1, for which the “stoichiometry N” value in data set [4] is 5.
